Data taken from US20160326142A1, “PYRAZOLE CARBOXAMIDE COMPOUNDS, COMPOSITIONS AND METHODS OF USE” (Genentech, Inc., priority 2012, published 2016).

Molecular target: T1, ITK (Homo sapiens, UniProt Q08881)
T1 construct: purchased Invitrogen PV3875
T1 sequence (Q08881 1-620): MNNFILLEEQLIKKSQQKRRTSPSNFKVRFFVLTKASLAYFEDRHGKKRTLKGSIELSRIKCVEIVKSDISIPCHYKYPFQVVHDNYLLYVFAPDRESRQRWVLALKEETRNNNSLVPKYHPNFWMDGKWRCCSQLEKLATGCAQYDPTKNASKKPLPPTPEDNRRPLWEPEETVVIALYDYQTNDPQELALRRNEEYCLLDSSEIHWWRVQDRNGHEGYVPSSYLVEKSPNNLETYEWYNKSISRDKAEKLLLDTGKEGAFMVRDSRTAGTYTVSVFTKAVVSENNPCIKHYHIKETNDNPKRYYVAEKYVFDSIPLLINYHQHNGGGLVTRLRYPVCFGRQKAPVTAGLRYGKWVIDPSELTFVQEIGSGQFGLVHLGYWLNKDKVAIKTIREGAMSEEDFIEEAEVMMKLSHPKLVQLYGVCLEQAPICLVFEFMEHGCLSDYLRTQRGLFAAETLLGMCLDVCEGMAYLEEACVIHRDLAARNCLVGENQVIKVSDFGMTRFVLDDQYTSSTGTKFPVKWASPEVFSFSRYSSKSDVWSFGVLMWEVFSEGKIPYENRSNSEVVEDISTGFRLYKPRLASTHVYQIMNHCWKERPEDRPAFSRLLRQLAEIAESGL
Experiment: ITK enzyme assay (Caliper or LCMS peptide phosphorylation)
Format: biochemical
Conditions: purified ITK (Invitrogen PV3875), 20 μM ATP, Ki by Morrison's quadratic equation
How it was run: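 Purified human ITK peptide phosphorylation, quenched with EDTA (50 mM final) for Caliper LabChip separation or TCA (5% v/v final) for UPLC-MS/MS MRM quantification. Ki derived via Morrison tight-binding equation, corrected for competitive inhibition using ATP concentration relative to Km,app.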

| SMILES | Ki |
| --- | --- |
| CC1(C)Cc2[nH]nc(C(=O)Nc3cnn(Cc4ccccc4)c3)c2CC1CO (single isomer, unassigned) [Example 95a, N-(1-benzyl-1H-pyrazol-4-yl)-5-(hydroxymethyl)-6,6-dimethyl-4,5,6,7-tetrahydro-1H-indazole-3-carboxamide] | 5 nM |
| CC1(C)Cc2[nH]nc(C(=O)Nc3cnn(Cc4ccccc4)c3)c2CC1CO (single isomer, unassigned) [Example 95b, N-(1-benzyl-1H-pyrazol-4-yl)-5-(hydroxymethyl)-6,6-dimethyl-4,5,6,7-tetrahydro-1H-indazole-3-carboxamide] | 320 nM |
| CC(c1cncs1)n1cc(NC(=O)c2n[nH]c3c2CCC(C)(C)C3)cn1 (single isomer, unassigned) [Example 98a, 6,6-dimethyl-N-(1-(1-(thiazol-5-yl)ethyl)-1H-pyrazol-4-yl)-4,5,6,7-tetrahydro-1H-indazole-3-carboxamide] | 8 nM |
| CC(c1cncs1)n1cc(NC(=O)c2n[nH]c3c2CCC(C)(C)C3)cn1 (single isomer, unassigned) [Example 98b, 6,6-dimethyl-N-(1-(1-(thiazol-5-yl)ethyl)-1H-pyrazol-4-yl)-4,5,6,7-tetrahydro-1H-indazole-3-carboxamide] | 2 nM |
| CCC(c1cnn(CC)c1)n1cc(NC(=O)c2n[nH]c3c2CCC(C)(C)C3)cn1 (single isomer, unassigned) [Example 99a, N-(1-(1-(1-ethyl-1H-pyrazol-4-yl)propyl)-1H-pyrazol-4-yl)-6,6-dimethyl-4,5,6,7-tetrahydro-1H-indazole-3-carboxamide] | 4 nM |
| CCC(c1cnn(CC)c1)n1cc(NC(=O)c2n[nH]c3c2CCC(C)(C)C3)cn1 (single isomer, unassigned) [Example 99b, N-(1-(1-(1-ethyl-1H-pyrazol-4-yl)propyl)-1H-pyrazol-4-yl)-6,6-dimethyl-4,5,6,7-tetrahydro-1H-indazole-3-carboxamide] | 4 nM |
| CCn1cc(C(C)n2cc(NC(=O)c3n[nH]c4c3CCC(C)(C)C4)cn2)cn1 (single isomer, unassigned) [Example 100a, N-(1-(1-(1-ethyl-1H-pyrazol-4-yl)ethyl)-1H-pyrazol-4-yl)-6,6-dimethyl-4,5,6,7-tetrahydro-1H-indazole-3-carboxamide] | 17 nM |
| CCn1cc(C(C)n2cc(NC(=O)c3n[nH]c4c3CCC(C)(C)C4)cn2)cn1 (single isomer, unassigned) [Example 100b, N-(1-(1-(1-ethyl-1H-pyrazol-4-yl)ethyl)-1H-pyrazol-4-yl)-6,6-dimethyl-4,5,6,7-tetrahydro-1H-indazole-3-carboxamide] | 7 nM |
| Cc1nnc(C(C)n2cc(NC(=O)c3n[nH]c4c3CCC(C)(C)C4)cn2)o1 (single isomer, unassigned) [Example 101a, 6,6-dimethyl-N-(1-(1-(5-methyl-1,3,4-oxadiazol-2-yl)ethyl)-1H-pyrazol-4-yl)-4,5,6,7-tetrahydro-1H-indazole-3-carboxamide] | 41 nM |
| Cc1nnc(C(C)n2cc(NC(=O)c3n[nH]c4c3CCC(C)(C)C4)cn2)o1 (single isomer, unassigned) [Example 101b, 6,6-dimethyl-N-(1-(1-(5-methyl-1,3,4-oxadiazol-2-yl)ethyl)-1H-pyrazol-4-yl)-4,5,6,7-tetrahydro-1H-indazole-3-carboxamide] | 12 nM |
| CC1(C#N)CCc2c(C(=O)Nc3cnn(Cc4ccccc4)c3)n[nH]c2C1 (single isomer, unassigned) [Example 102a, N-(1-benzyl-1H-pyrazol-4-yl)-6-cyano-6-methyl-4,5,6,7-tetrahydro-1H-indazole-3-carboxamide] | 300 nM |
| CC1(C#N)CCc2c(C(=O)Nc3cnn(Cc4ccccc4)c3)n[nH]c2C1 (single isomer, unassigned) [Example 102b, N-(1-benzyl-1H-pyrazol-4-yl)-6-cyano-6-methyl-4,5,6,7-tetrahydro-1H-indazole-3-carboxamide] | 10 nM |
| O=C(Nc1cnn(Cc2ccccc2)c1)c1n[nH]c2c1CCC1(CCCC1=O)C2 (single isomer, unassigned) [Example 105a, N-(1-benzyl-1H-pyrazol-4-yl)-2-oxo-1′,4′,5′,7′-tetrahydrospiro[cyclopentane-1,6′-indazole]-3′-carboxamide] | 3 nM |
| O=C(Nc1cnn(Cc2ccccc2)c1)c1n[nH]c2c1CCC1(CCCC1=O)C2 (single isomer, unassigned) [Example 105b, N-(1-benzyl-1H-pyrazol-4-yl)-2-oxo-1′,4′,5′,7′-tetrahydrospiro[cyclopentane-1,6′-indazole]-3′-carboxamide] | 240 nM |

Other lines, results leading:

| Ki | SMILES |
| --- | --- |
| 1 nM | CC12Cc3[nH]nc(C(=O)Nc4cnn(C(CS(C)(=O)=O)c5cccnc5)c4)c3CC1C2 (single isomer, unassigned) [Example 93b, 5a-methyl-N-(1-(2-(methylsulfonyl)-1-(pyridin-3-yl)ethyl)-1H-pyrazol-4-yl)-1,4,4a,5,5a,6-hexahydrocyclopropa[f]indazole-3-carboxamide] |
| 0.3 nM | CC1(C)Cc2[nH]nc(C(=O)Nc3cnn(C(c4ccccc4)C4CCS(=O)(=O)CC4)c3)c2C1 (single isomer, unassigned) [Example 94a, N-(1-((1,1-dioxidotetrahydro-2H-thiopyran-4-yl)(phenyl)methyl)-1H-pyrazol-4-yl)-5,5-dimethyl-1,4,5,6-tetrahydrocyclopenta[c]pyrazole-3-carboxamide] |
| 13 nM | CC1(C)Cc2[nH]nc(C(=O)Nc3cnn(C(c4ccccc4)C4CCS(=O)(=O)CC4)c3)c2C1 (single isomer, unassigned) [Example 94b, N-(1-((1,1-dioxidotetrahydro-2H-thiopyran-4-yl)(phenyl)methyl)-1H-pyrazol-4-yl)-5,5-dimethyl-1,4,5,6-tetrahydrocyclopenta[c]pyrazole-3-carboxamide] |
| 57 nM | CN(C)CC(c1ccccc1)n1cc(NC(=O)c2n[nH]c3c2CC(C)(C)C3)cn1 (single isomer, unassigned) [Example 96a, N-(1-(2-(dimethylamino)-1-phenylethyl)-1H-pyrazol-4-yl)-5,5-dimethyl-1,4,5,6-tetrahydrocyclopenta[c]pyrazole-3-carboxamide] |
| 2 nM | CN(C)CC(c1ccccc1)n1cc(NC(=O)c2n[nH]c3c2CC(C)(C)C3)cn1 (single isomer, unassigned) [Example 96b, N-(1-(2-(dimethylamino)-1-phenylethyl)-1H-pyrazol-4-yl)-5,5-dimethyl-1,4,5,6-tetrahydrocyclopenta[c]pyrazole-3-carboxamide] |
| 2 nM | CC1(C)Cc2[nH]nc(C(=O)Nc3cnn(C(CS(C)(=O)=O)c4cccnc4)c3)c2C1 (single isomer, unassigned) [Example 97a, 5,5-dimethyl-N-(1-(2-(methylsulfonyl)-1-(pyridin-3-yl)ethyl)-1H-pyrazol-4-yl)-1,4,5,6-tetrahydrocyclopenta[c]pyrazole-3-carboxamide] |
| 6 nM | CC1(C)Cc2[nH]nc(C(=O)Nc3cnn(C(CS(C)(=O)=O)c4cccnc4)c3)c2C1 (single isomer, unassigned) [Example 97b, 5,5-dimethyl-N-(1-(2-(methylsulfonyl)-1-(pyridin-3-yl)ethyl)-1H-pyrazol-4-yl)-1,4,5,6-tetrahydrocyclopenta[c]pyrazole-3-carboxamide] |
| 20 nM | CC(c1ncco1)n1cc(NC(=O)c2n[nH]c3c2CCC(C)(C)C3)cn1 (single isomer, unassigned) [Example 103a, 6,6-dimethyl-N-(1-(1-(oxazol-2-yl)ethyl)-1H-pyrazol-4-yl)-4,5,6,7-tetrahydro-1H-indazole-3-carboxamide] |
| 9 nM | CC(c1ncco1)n1cc(NC(=O)c2n[nH]c3c2CCC(C)(C)C3)cn1 (single isomer, unassigned) [Example 103b, 6,6-dimethyl-N-(1-(1-(oxazol-2-yl)ethyl)-1H-pyrazol-4-yl)-4,5,6,7-tetrahydro-1H-indazole-3-carboxamide] |
| 3 nM | CC(c1cccnc1)n1cc(NC(=O)c2n[nH]c3c2CCC(C)(C)C3)cn1 (single isomer, unassigned) [Example 106a, 6,6-dimethyl-N-(1-(1-(pyridin-3-yl)ethyl)-1H-pyrazol-4-yl)-4,5,6,7-tetrahydro-1H-indazole-3-carboxamide] |
| 5 nM | CC(c1cccnc1)n1cc(NC(=O)c2n[nH]c3c2CCC(C)(C)C3)cn1 (single isomer, unassigned) [Example 106b, 6,6-dimethyl-N-(1-(1-(pyridin-3-yl)ethyl)-1H-pyrazol-4-yl)-4,5,6,7-tetrahydro-1H-indazole-3-carboxamide] |
| 18 nM | CC(c1ccncc1)n1cc(NC(=O)c2n[nH]c3c2CCC(C)(C)C3)cn1 (single isomer, unassigned) [Example 107a, 6,6-dimethyl-N-(1-(1-(pyridin-4-yl)ethyl)-1H-pyrazol-4-yl)-4,5,6,7-tetrahydro-1H-indazole-3-carboxamide] |
